Assay results taken from patent US20040171680A1, “Treating Syndrome X with substituted tetralins and indanes” (priority 2002, published 2004).

Molecular target: T1, PPARα (Rattus norvegicus, UniProt P37230)
T1 construct: H4IIE rat hepatoma cell line was obtained from ATCC; host or cells: H4IIE rat hepatoma cells
T1 sequence (P37230 1-468): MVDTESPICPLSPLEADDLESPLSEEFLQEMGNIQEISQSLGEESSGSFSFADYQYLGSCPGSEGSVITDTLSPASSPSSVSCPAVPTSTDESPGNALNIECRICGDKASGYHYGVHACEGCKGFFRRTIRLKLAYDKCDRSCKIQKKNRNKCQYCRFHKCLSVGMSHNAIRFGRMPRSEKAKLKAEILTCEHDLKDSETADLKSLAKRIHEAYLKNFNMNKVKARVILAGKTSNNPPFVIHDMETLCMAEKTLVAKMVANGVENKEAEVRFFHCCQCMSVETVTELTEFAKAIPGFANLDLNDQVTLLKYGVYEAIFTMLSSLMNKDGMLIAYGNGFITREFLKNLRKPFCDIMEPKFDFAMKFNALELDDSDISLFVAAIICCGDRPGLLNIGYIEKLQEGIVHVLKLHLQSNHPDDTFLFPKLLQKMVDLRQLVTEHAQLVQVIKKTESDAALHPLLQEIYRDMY
Test: HD bDNA Assay (HD gene induction)
Format: cell-based
Settings: in section F; target not named there, values match the PPARα column; read-out: EC50
In short: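 H4IIE rat hepatoma cells (~100,000/well) treated 24 hours at 37° C in low-serum medium (5% charcoal/dextran-treated calf serum) with compounds. HD mRNA quantified by branched DNA luminescence assay; EC50's from sigmoidal non-linear regression.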

CCN(C(=O)Nc1ccc(OC(F)(F)F)cc1)C1CCc2cc(SC(C)(C)C(=O)O)c(F)cc2C1 (stereo not shown) [Example 50, 2-{6-[1-Ethyl-3-(4-trifluoromethoxyphenyl)ureido]-3-fluoro-5,6,7,8-tetrahydronaphthalen-2-ylsulfanyl}-2-methylpropionic acid]
EC50: 10 nM
